Measured values taken from PubChem BioAssay (NCI).
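GI50 = concentration required for 50% inhibition of growth. TGI: concentration producing complete growth inhibition.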

Legend:
Test in all cases: NCI-60 cell line screen, 384-well format
SK-MEL-2 melanoma = tested on: SK-MEL-2 melanoma
IGROV1 ovarian = tested on: IGROV1 ovarian
PC-3 prostate = tested on: PC-3 prostate
SN12C renal = tested on: SN12C renal
NCI-H226 lung = tested on: NCI-H226 lung
MDA-MB-435 melanoma = tested on: MDA-MB-435 melanoma
M14 melanoma = tested on: M14 melanoma
COLO 205 colon = tested on: COLO 205 colon
HCC-2998 colon = tested on: HCC-2998 colon
KM12 colon = tested on: KM12 colon
UACC-257 melanoma = tested on: UACC-257 melanoma
DU-145 prostate = tested on: DU-145 prostate
HCT-15 colon = tested on: HCT-15 colon
SF-268 CNS = tested on: SF-268 CNS
OVCAR-8 ovarian = tested on: OVCAR-8 ovarian
CAKI-1 renal = tested on: CAKI-1 renal
SK-MEL-5 melanoma = tested on: SK-MEL-5 melanoma
EKVX NSCLC = tested on: EKVX NSCLC
NCI/ADR-RES ovarian = tested on: NCI/ADR-RES ovarian
HOP-92 NSCLC = tested on: HOP-92 NSCLC
786-0 renal = tested on: 786-0 renal
U251 glioblastoma = tested on: U251 glioblastoma
MDA-MB-231 breast = tested on: MDA-MB-231 breast
SW-620 colon = tested on: SW-620 colon
OVCAR-5 ovarian = tested on: OVCAR-5 ovarian
OVCAR-3 ovarian = tested on: OVCAR-3 ovarian
MCF7 breast = tested on: MCF7 breast
SK-MEL-28 melanoma = tested on: SK-MEL-28 melanoma
UACC-62 melanoma = tested on: UACC-62 melanoma
A498 renal = tested on: A498 renal
MOLT-4 leukemia = tested on: MOLT-4 leukemia
CCRF-CEM leukemia = tested on: CCRF-CEM leukemia
MALME-3M melanoma = tested on: MALME-3M melanoma
HT29 colon = tested on: HT29 colon
HS 578T breast = tested on: HS 578T breast
SK-OV-3 ovarian = tested on: SK-OV-3 ovarian
SNB-75 CNS = tested on: SNB-75 CNS
A549 NSCLC = tested on: A549 NSCLC
SF-539 CNS = tested on: SF-539 CNS
NCI-H460 NSCLC = tested on: NCI-H460 NSCLC
NCI-H322M lung = tested on: NCI-H322M lung
BT-549 breast = tested on: BT-549 breast
NCI-H23 lung = tested on: NCI-H23 lung
NCI-H522 lung = tested on: NCI-H522 lung
MDA-MB-468 breast = tested on: MDA-MB-468 breast
SF-295 CNS = tested on: SF-295 CNS
OVCAR-4 ovarian = tested on: OVCAR-4 ovarian
SNB-19 CNS = tested on: SNB-19 CNS
ACHN renal = tested on: ACHN renal
RXF 393 renal = tested on: RXF 393 renal
SR leukemia = tested on: SR leukemia
T-47D breast = tested on: T-47D breast
HOP-62 NSCLC = tested on: HOP-62 NSCLC
RPMI-8226 leukemia = tested on: RPMI-8226 leukemia
HL-60(TB) leukemia = tested on: HL-60(TB) leukemia

## CC1=C(CO)C2=C(C)C3(CC3)[C@@](C)(O)C(=O)C2=C1
SK-MEL-2 melanoma
  GI50: 237 nM
  TGI: 392 nM
IGROV1 ovarian
  GI50: 163 nM
  TGI: 447 nM
PC-3 prostate
  GI50: 186 nM
  TGI: 404 nM
SN12C renal
  GI50: 231 nM
  TGI: 761 nM
NCI-H226 lung
  GI50: 297 nM
  TGI: 793 nM
MDA-MB-435 melanoma
  GI50: 1760 nM
  TGI: 3480 nM
M14 melanoma
  GI50: 234 nM
  TGI: 576 nM
COLO 205 colon
  GI50: 132 nM
  TGI: 272 nM
HCC-2998 colon
  GI50: 110 nM
  TGI: 240 nM
KM12 colon
  GI50: 1400 nM
  TGI: 3360 nM
UACC-257 melanoma
  GI50: 216 nM
  TGI: 465 nM
DU-145 prostate
  GI50: 46.8 nM
  TGI: 305 nM
HCT-15 colon
  GI50: 188 nM
  TGI: 365 nM
SF-268 CNS
  GI50: 143 nM
  TGI: 318 nM
OVCAR-8 ovarian
  GI50: 219 nM
  TGI: 527 nM
CAKI-1 renal
  GI50: 178 nM
  TGI: 372 nM
SK-MEL-5 melanoma
  GI50: 166 nM
  TGI: 376 nM
EKVX NSCLC
  GI50: 203 nM
  TGI: 452 nM
NCI/ADR-RES ovarian
  GI50: 222 nM
  TGI: 428 nM
HOP-92 NSCLC
  GI50: 124 nM
  TGI: 445 nM
786-0 renal
  GI50: 180 nM
  TGI: 381 nM
U251 glioblastoma
  GI50: 203 nM
  TGI: 410 nM
MDA-MB-231 breast
  GI50: 203 nM
  TGI: 473 nM
SW-620 colon
  GI50: 1160 nM
  TGI: 3150 nM
OVCAR-5 ovarian
  GI50: 213 nM
  TGI: 519 nM
OVCAR-3 ovarian
  GI50: 152 nM
  TGI: 312 nM
MCF7 breast
  GI50: 184 nM
  TGI: 496 nM
SK-MEL-28 melanoma
  GI50: 251 nM
  TGI: 624 nM
UACC-62 melanoma
  GI50: 394 nM
  TGI: 1520 nM
A498 renal
  GI50: 50.8 nM
  TGI: 367 nM
MOLT-4 leukemia
  GI50: 147 nM
  TGI: 336 nM
CCRF-CEM leukemia
  GI50: 1490 nM
  TGI: 2830 nM
MALME-3M melanoma
  GI50: 152 nM
  TGI: 296 nM
HT29 colon
  GI50: 184 nM
  TGI: 395 nM
HS 578T breast
  GI50: 325 nM
  TGI: 1070 nM
SK-OV-3 ovarian
  GI50: 179 nM
  TGI: 390 nM
SNB-75 CNS
  GI50: 119 nM
  TGI: 250 nM
A549 NSCLC
  GI50: 96.2 nM
  TGI: 527 nM
SF-539 CNS
  GI50: 173 nM
  TGI: 313 nM
NCI-H460 NSCLC
  GI50: 43.7 nM
  TGI: 174 nM
NCI-H322M lung
  GI50: 182 nM
  TGI: 369 nM
BT-549 breast
  GI50: 132 nM
  TGI: 269 nM
NCI-H23 lung
  GI50: 53.9 nM
  TGI: 181 nM
NCI-H522 lung
  GI50: 116 nM
  TGI: 244 nM
MDA-MB-468 breast
  GI50: 45.1 nM
  TGI: 125 nM
SF-295 CNS
  GI50: 185 nM
  TGI: 374 nM
OVCAR-4 ovarian
  GI50: 201 nM
  TGI: 392 nM
SNB-19 CNS
  GI50: 317 nM
  TGI: 1240 nM
ACHN renal
  GI50: 214 nM
  TGI: 404 nM
RXF 393 renal
  GI50: 16.7 nM
  TGI: 35.8 nM
SR leukemia
  GI50: 171 nM
  TGI: 361 nM
T-47D breast
  GI50: 159 nM
  TGI: 423 nM
HOP-62 NSCLC
  GI50: 159 nM
  TGI: 316 nM
RPMI-8226 leukemia
  GI50: 5960 nM
  TGI: 18000 nM
HL-60(TB) leukemia
  GI50: 179 nM
  TGI: 334 nM
